In paper PMC12040169 (PLOS Biology, 2025):

Experiment: in vitro
Settings: human, hela cells, % viability

Going from `Cc1ccc(C23CC4CC(CC(C(=O)NC(C(=O)O)C(C)C)(C4)C2)C3)cc1` (centres unmarked) [CBK264924] to `CC(=O)N1CCC(Cn2nc(-c3ccc(F)cc3)ccc2=O)CC1` [CBK282406], the viability at 28.5 h, 10 µM falls from 110% to 101%.

Going from `O=[N+]([O-])c1cccc(C(Nc2ccccn2)n2cnc3ccccc32)c1` (centres unmarked) [CBK261145] to `Cc1c(-c2ccc(Cl)cc2Cl)nc2ccccc2c1C(=O)NCCC(c1ccccc1)c1ccccc1` [CBK262634], the viability at 28.5 h, 10 µM rises from 87.6% to 99.7%.

Going from `Cc1c(-c2ccc(Cl)cc2Cl)nc2ccccc2c1C(=O)NCc1ccc(S(N)(=O)=O)cc1` [CBK265387] to `NC(=O)COc1ccc(CNc2ccc(Oc3ccccc3)cc2)cc1Cl` [CBK269584], the viability at 28.5 h, 10 µM falls from 101% to 89.4%.

Going from `CC(C)(C)n1cc(C(=O)N2CCNCC2c2cccc(Cl)c2)cn1` (centres unmarked) [CBK304112] to `O=C(O)C(=O)N1CCN(C(=O)c2cc3ccccc3[nH]2)CC1` [CBK288433], the viability at 28.5 h, 10 µM rises from 96.9% to 107%.

First: COc1ccccc1CNCc1ccc(CNC(=O)OC(C)(C)C)cc1 [CBK056702]
Second: COc1ccc(CC(=O)N2CCC(Cc3cccc(-c4cccs4)c3)(C(N)=O)CC2)cc1 [CBK285744]
The viability at 28.5 h, 10 µM of the first is higher: 100% for the first, 93.2% for the second.

Going from `CC(C)OC(=O)c1cc2c(ccn2-c2ccc(F)cc2)n1CCC#N` [CBK123921] to `O=S(=O)(c1ccc(-n2cnc(Cl)c2Cl)cc1)N1CCN(Cc2ccc(O)c(F)c2)CC1` [CBK062803], the viability at 28.5 h, 10 µM rises from 95% to 95.8%.

First: O=C(NCc1ccc2c(c1)OCO2)N1CCCCC1CO (centres unmarked) [CBK156166]
Second: CCN(CC)S(=O)(=O)c1cc(C(=O)NC2CCCCC2)ccc1Br [CBK058354]
The viability at 28.5 h, 10 µM of the first is lower: 89.3% for the first, 96.3% for the second.

Compared with `CCOC(=O)CNC(=O)C1Cc2ccccc2CN1S(=O)(=O)c1cccs1` (centres unmarked) [CBK265575], `COC(=O)c1ccc(Cn2cc(NC(=O)NCCc3cccs3)cn2)o1` [CBK043825] is lower in viability at 28.5 h, 10 µM: 103% for the first, 82.4% for the second.

First: COCC(=O)NC1CCN(CC2(c3ccccc3F)CCCC2)CC1 [CBK284850]
Second: O=C(CC1CCN(Cc2ccccn2)CC1)NCC1(c2ccccc2)CCCC1 [CBK285959]
The viability at 28.5 h, 10 µM of the first is higher: 114% for the first, 87.4% for the second.

Compared with `Cc1ccc(CN2Cc3cc4ccccc4nc3OC(C)C2=O)o1` (centres unmarked) [CBK284004], `Cc1ccc(C(=O)C(C)OC(=O)c2cc(-c3ccccc3)nc3ccccc23)cc1` (centres unmarked) [CBK264067] is higher in viability at 28.5 h, 10 µM: 90.6% for the first, 99.8% for the second.

First: Cc1nn(C)c(C)c1OCC(=O)Nc1cc(C(C)(C)C)sc1C#N [CBK305383]
Second: CCc1c(C)sc(NC(=S)Nc2cnccn2)c1C(=O)OC [CBK267088]
The viability at 28.5 h, 10 µM of the first is higher: 101% for the first, 96.5% for the second.

Going from `COc1ccc([C@@]23CC[C@H](NC(=O)CSc4nccn4C)C[C@@H]2N(C)CC3)cc1OC` [CBK036444] to `O=C(NC(c1ccc(-c2ccccc2)cc1)c1cnccn1)C1CCN(CCc2ccc(F)cc2)CC1` (centres unmarked) [CBK147981], the viability at 28.5 h, 10 µM rises from 84.7% to 92.6%.

Compared with `O=C1CN(C(=O)NCCc2c[nH]c3ccccc23)CCN1` [CBK155866], `O=C(Cc1ccccc1)N1CCN(Cc2ccccn2)CC1` [CBK263039] is lower in viability at 28.5 h, 10 µM: 95.8% for the first, 88.6% for the second.

Compared with `Cc1c(C(=O)C2=C(O)C(=O)N(Cc3cccnc3)C2c2cccnc2)cnn1-c1ccccc1` (centres unmarked) [CBK266543], `CCC(Sc1nc(O)cc(-c2ccccc2)n1)C(=O)O` (centres unmarked) [CBK287135] is lower in viability at 28.5 h, 10 µM: 105% for the first, 87.8% for the second.

Going from `CC1(C)NC(=O)N(CC(O)COc2ccc([N+](=O)[O-])cc2)C1=O` (centres unmarked) [CBK262840] to `COc1ccc(/C=C/C(=O)O)cc1S(=O)(=O)Nc1ccc(C(=O)O)cc1` [CBK261246], the viability at 28.5 h, 10 µM rises from 98.8% to 108%.

First: CSCCC(C(=O)O)N1C(=O)C(=Cc2ccc(-c3cc(Cl)cc(Cl)c3)o2)SC1=S (centres unmarked) [CBK296984]
Second: CC1CCC(C(N)=O)CN1C(=O)c1cncc(Br)c1 (centres unmarked) [CBK305773]
The viability at 28.5 h, 10 µM of the first is lower: 87.3% for the first, 96.3% for the second.

Going from `O=C(c1cncnc1)N1CCC(F)CC1` [CBK200384] to `CCC1c2cccn2CCN1Cc1cncn1CC` (centres unmarked) [CBK283012], the viability at 28.5 h, 10 µM falls from 92.1% to 85.8%.

Work on `CN1CCCN(c2nccnc2-c2cccs2)CC1` [CBK088823] yielded a viability at 28.5 h, 10 µM of 98.5%.
